In ChEMBL document CHEMBL1201862, “PubChem BioAssay data set” (2004):
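Exposure lasted 48 hours, with cells grown in 96-well plates and compounds tested at five concentrations. Abbreviation: GI50, concentration required for 50% inhibition of growth.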 The source made the active and inactive calls. No stated cut-off is given here; in the data, active = GI50 up to about 1.1 µM and inactive = higher.

Tests used:
Assay in all cases: NCI tumour cell line growth inhibition, 48 h
HCC 2998 = test system: HCC 2998
CAKI-1 = test system: CAKI-1
Malme-3M = test system: Malme-3M
SNB-19 = test system: SNB-19
DU-145 = test system: DU-145
SW-620 = test system: SW-620
NCI-H23 = test system: NCI-H23
NCI/ADR-RES = test system: NCI/ADR-RES
NCI-H460 = test system: NCI-H460
RPMI-8226 = test system: RPMI-8226
SK-OV-3 = test system: SK-OV-3
UO-31 = test system: UO-31
DMS-114 = test system: DMS-114
HL-60 = test system: HL-60
M19-MEL = test system: M19-MEL
OVCAR-4 = test system: OVCAR-4
SNB-78 = test system: SNB-78
SNB-75 = test system: SNB-75
TK-10 = test system: TK-10
LXFL 529 = test system: LXFL 529

| SMILES | GI50 (HCC 2998) | GI50 (CAKI-1) | GI50 (Malme-3M) | GI50 (SNB-19) | GI50 (DU-145) | GI50 (SW-620) | GI50 (NCI-H23) | GI50 (NCI/ADR-RES) | GI50 (NCI-H460) | GI50 (RPMI-8226) | GI50 (SK-OV-3) | GI50 (UO-31) | GI50 (DMS-114) | GI50 (HL-60) | GI50 (M19-MEL) | GI50 (OVCAR-4) | GI50 (SNB-78) | GI50 (SNB-75) | GI50 (TK-10) | GI50 (LXFL 529) |
| --- | --- | --- | --- | --- | --- | --- | --- | --- | --- | --- | --- | --- | --- | --- | --- | --- | --- | --- | --- | --- |
| O=C1N[C@@H]([C@H]2CC[C@H](Cl)CN2)C(=O)N[C@H]1[C@H]1CC[C@H](Cl)CN1 | 0.923 µM (active) | 0.261 µM (active) | 0.836 µM (active) | 1.37 µM (inactive) | 0.108 µM (active) | 0.962 µM (active) | 0.292 µM (active) | 0.902 µM (active) | 0.116 µM (active) | 1.32 µM (inactive) | 0.836 µM (active) | 1.04 µM (active) | 0.269 µM (active) | 0.1 µM (active) | 2.47 µM (inactive) | 2.77 µM (inactive) | 2.94 µM (inactive) | 0.507 µM (active) | 4.42 µM (inactive) | – |
| CC1=C(C(=O)CC(=O)C(=O)Nc2ccccc2C(F)(F)F)Sc2ccccc2N1 | 41.1 µM (inactive) | 53.2 µM (inactive) | > 100 µM (inactive) | 35.1 µM (inactive) | – | 33.7 µM (inactive) | 22.1 µM (inactive) | – | 57.1 µM (inactive) | 60 µM (inactive) | > 100 µM (inactive) | 25.4 µM (inactive) | 32.6 µM (inactive) | 35.4 µM (inactive) | – | 29.3 µM (inactive) | 47.3 µM (inactive) | 4.23 µM (inactive) | > 100 µM (inactive) | 35.7 µM (inactive) |
| CCOC(=O)C1Cc2[nH]c3ccccc3c2C(C)C1C (stereo unspecified) | > 10 µM (inactive) | 16.4 µM (inactive) | 16.9 µM (inactive) | 17.7 µM (inactive) | – | 17.3 µM (inactive) | 13.5 µM (inactive) | – | 17.3 µM (inactive) | – | 18.9 µM (inactive) | 12.8 µM (inactive) | 22.3 µM (inactive) | – | – | 16 µM (inactive) | 19.4 µM (inactive) | 8.09 µM (inactive) | 30 µM (inactive) | 19.9 µM (inactive) |
| O=C1c2ccccc2C(=O)c2[nH]cnc21 | 48.4 µM (inactive) | > 100 µM (inactive) | 20 µM (inactive) | 46.7 µM (inactive) | – | – | 30.2 µM (inactive) | – | 32.1 µM (inactive) | – | – | > 100 µM (inactive) | 31.5 µM (inactive) | 23.6 µM (inactive) | 20.4 µM (inactive) | 76.6 µM (inactive) | 41.3 µM (inactive) | – | > 100 µM (inactive) | – |
| Cc1cc(NS(=O)(=O)c2ccc(Nc3c4ccccc4nc4c(C(=O)N5CCN(CCO)CC5)cccc34)cc2)no1 | 49 µM (inactive) | > 100 µM (inactive) | > 100 µM (inactive) | > 100 µM (inactive) | – | > 100 µM (inactive) | > 100 µM (inactive) | – | > 100 µM (inactive) | – | > 100 µM (inactive) | > 100 µM (inactive) | > 100 µM (inactive) | 47.6 µM (inactive) | > 100 µM (inactive) | > 100 µM (inactive) | > 100 µM (inactive) | > 100 µM (inactive) | > 100 µM (inactive) | > 100 µM (inactive) |
| CS(=O)(=O)N(CCC#N)c1ccc(/C=N/NC(=O)CC(=O)Nc2cccc(Cl)c2)cc1 | > 100 µM (inactive) | > 100 µM (inactive) | > 100 µM (inactive) | > 100 µM (inactive) | – | > 100 µM (inactive) | > 100 µM (inactive) | – | > 100 µM (inactive) | > 100 µM (inactive) | > 100 µM (inactive) | > 100 µM (inactive) | > 100 µM (inactive) | – | > 100 µM (inactive) | > 100 µM (inactive) | > 100 µM (inactive) | > 100 µM (inactive) | > 100 µM (inactive) | > 100 µM (inactive) |
| c1cc2nnsc2s1 | > 100 µM (inactive) | > 100 µM (inactive) | > 100 µM (inactive) | > 100 µM (inactive) | – | 39.2 µM (inactive) | > 100 µM (inactive) | – | > 100 µM (inactive) | 93.5 µM (inactive) | > 100 µM (inactive) | > 100 µM (inactive) | – | > 100 µM (inactive) | > 100 µM (inactive) | > 100 µM (inactive) | > 100 µM (inactive) | > 100 µM (inactive) | > 100 µM (inactive) | 90.8 µM (inactive) |
| O=C(CC1(O)C(=O)Nc2c(Cl)cc(Cl)cc21)c1cccc2ccccc12 (stereo unspecified) | – | 11.8 µM (inactive) | 19.5 µM (inactive) | 14.1 µM (inactive) | – | 16 µM (inactive) | 16.9 µM (inactive) | – | 16.6 µM (inactive) | 19.6 µM (inactive) | 16.6 µM (inactive) | – | 17.9 µM (inactive) | 10.5 µM (inactive) | – | 12.4 µM (inactive) | 26.7 µM (inactive) | 18.2 µM (inactive) | 14.1 µM (inactive) | 15.3 µM (inactive) |
| COc1ccc(/N=C(/[N-]n2c(=O)c(C)nn(C)c2=S)N(c2ccc(OC)cc2)c2n[n+]3c(=O)c(C)nn(C)c3s2)cc1 | – | – | – | > 100 µM (inactive) | – | > 100 µM (inactive) | > 100 µM (inactive) | – | > 100 µM (inactive) | > 100 µM (inactive) | – | – | > 100 µM (inactive) | > 100 µM (inactive) | > 100 µM (inactive) | > 100 µM (inactive) | > 100 µM (inactive) | > 100 µM (inactive) | – | > 100 µM (inactive) |
| CC(=O)OC1c2ccccc2CCCCCCC12OCCO2 (stereo unspecified) | > 100 µM (inactive) | 51.9 µM (inactive) | 92.5 µM (inactive) | > 100 µM (inactive) | – | > 100 µM (inactive) | > 100 µM (inactive) | – | > 100 µM (inactive) | 48.3 µM (inactive) | > 100 µM (inactive) | > 100 µM (inactive) | 61.5 µM (inactive) | 44.3 µM (inactive) | – | > 100 µM (inactive) | > 100 µM (inactive) | > 100 µM (inactive) | > 100 µM (inactive) | – |
| CC(=O)OCCOCNC(=S)N/N=C/c1ccc(Br)s1 | > 100 µM (inactive) | – | > 100 µM (inactive) | > 100 µM (inactive) | – | > 100 µM (inactive) | > 100 µM (inactive) | – | 78.3 µM (inactive) | 5.08 µM (inactive) | > 100 µM (inactive) | > 100 µM (inactive) | 33.3 µM (inactive) | – | > 100 µM (inactive) | > 93.3 µM (inactive) | > 100 µM (inactive) | > 100 µM (inactive) | > 100 µM (inactive) | > 70.3 µM (inactive) |
| CC(=O)NC(CCCNCc1ccccc1)C(=O)NCc1ccccc1 (stereo unspecified) | > 100 µM (inactive) | > 100 µM (inactive) | > 100 µM (inactive) | > 100 µM (inactive) | – | > 100 µM (inactive) | > 100 µM (inactive) | – | > 100 µM (inactive) | > 100 µM (inactive) | > 100 µM (inactive) | > 100 µM (inactive) | > 100 µM (inactive) | – | > 100 µM (inactive) | > 100 µM (inactive) | 82 µM (inactive) | 87.3 µM (inactive) | > 100 µM (inactive) | > 100 µM (inactive) |
